Experimental data published in ChEMBL document CHEMBL1275245, “Clinical and toxicodynamic evidence that high-dose pyrazinamide is not more hepatotoxic than the low doses currently used” (Antimicrob Agents Chemother, 2010).

Assays:
Homo sapiens [1] = assay: Pharmacokinetic parameter in TB patient serum assessed as percentage of time the compound persisted above 20 mg/L at 1500 mg/kg daily; assay type: ADME, organism-based; parameters: dose 1500 mg/kg; conditions: in vivo
Homo sapiens [2] = species on record: Homo sapiens; assay: Toxicity in TB patients assessed as arthralgia; assay type: organism-based; conditions: in vivo
Homo sapiens [3] = assay: Hepatotoxicity in TB patients assessed as jaundice at 3.7 g/kg/day measured after 87 days; assay type: toxicity, organism-based; conditions: in vivo, 3700 mg/kg, 2088 h
Homo sapiens [4] = assay: Hepatotoxicity in TB patients assessed as abnormal flocculation at 3.7 g/kg/day measured after 87 days; assay type: toxicity, organism-based; conditions: in vivo, 3700 mg/kg, 2088 h
Homo sapiens [5] = assay: Hepatotoxicity in TB patients assessed as abnormal flocculation at 3.7 g/kg/day measured after 52 days; assay type: toxicity, organism-based; conditions: in vivo, 3700 mg/kg, 1248 h
Homo sapiens [6] = species on record: Homo sapiens; assay: Pharmacokinetic parameter in TB patient serum assessed as percentage of time the compound persisted above 20 mg/L at 500 mg/ kg TID; assay type: ADME, organism-based; parameters: dose 500 mg/ kg; conditions: in vivo
Homo sapiens [7] = assay: Pharmacokinetic parameter in TB patient serum assessed as percentage of time the compound persisted above 20 mg/L at 3000 mg/kg administered alternate day; assay type: ADME, organism-based; parameters: dose 3000 mg/kg; conditions: in vivo
[8] = Cmax in TB patient serum at 500 mg/kg TID; assay type: ADME, organism-based; parameters: dose 500 mg/kg; conditions: human
Homo sapiens [9] = assay: Hepatotoxicity in TB patients assessed as jaundice at 3.7 g/kg/day measured after 52 days; assay type: toxicity, organism-based; conditions: in vivo, 3700 mg/kg, 1248 h
[10] = Systemic clearance in TB patient serum at 1500 mg/kg daily; assay type: ADME, organism-based; parameters: dose 1500 mg/kg; conditions: human
[11] = Systemic clearance in TB patient serum at 500 mg/ kg TID; assay type: ADME, organism-based; parameters: dose 500 mg/ kg; conditions: human
Homo sapiens [12] = assay: Hepatotoxicity in TB patients assessed as elevated aspartate aminotransferase level at 40 g/kg; assay type: toxicity, organism-based; conditions: in vivo, 40000 mg/kg
[13] = Cmax in TB patient serum at 3000 mg/kg administered alternate day; assay type: ADME, organism-based; parameters: dose 3000 mg/kg; conditions: human
[14] = AUC (0 to 168 hrs) in TB patient serum at 500 mg/ kg TID; assay type: ADME, organism-based; parameters: time < 168 hr, dose 500 mg/ kg; conditions: human
Homo sapiens [15] = assay: Pharmacokinetic parameter in TB patient serum assessed as percentage of time the compound persisted above 10 mg/L at 3000 mg/kg administered alternate day; assay type: ADME, organism-based; parameters: dose 3000 mg/kg; conditions: in vivo
[16] = Cmax in TB patient serum at 1500 mg/kg daily; assay type: ADME, organism-based; parameters: dose 1500 mg/kg; conditions: human
Homo sapiens [17] = species on record: Homo sapiens; assay: Toxicity in TB patients assessed as death; assay type: organism-based; conditions: in vivo
[18] = AUC (0 to 168 hrs) in serum of TB patient at 3000 mg/kg administered alternate day; assay type: ADME, organism-based; parameters: time < 168 hr, dose 3000 mg/kg; conditions: human
Homo sapiens [19] = assay: Hepatotoxicity in TB patients assessed as elevated aspartate aminotransferase level at 30 g/kg; assay type: toxicity, organism-based; conditions: in vivo, 30000 mg/kg
[20] = Systemic clearance in TB patient serum at 3000 mg/kg administered alternate day; assay type: ADME, organism-based; parameters: dose 3000 mg/kg; conditions: human
Homo sapiens [21] = species on record: Homo sapiens; assay: Pharmacokinetic parameter in TB patient serum assessed as percentage of time the compound persisted above 10 mg/L at 500 mg/ kg TID; assay type: ADME, organism-based; parameters: dose 500 mg/ kg; conditions: in vivo
Homo sapiens [22] = assay: Hepatotoxicity in TB patients assessed as elevated aspartate aminotransferase level at 60 g/kg; assay type: toxicity, organism-based; conditions: in vivo, 60000 mg/kg
Homo sapiens [23] = assay: Pharmacokinetic parameter in TB patient serum assessed as percentage of time the compound persisted above 5 mg/L at 1500 mg/kg daily; assay type: ADME, organism-based; parameters: dose 1500 mg/kg; conditions: in vivo
[24] = AUC (0 to 168 hrs) in serum of TB patient at 1500 mg/kg daily; assay type: ADME, organism-based; parameters: time < 168 hr, dose 1500 mg/kg; conditions: human
Homo sapiens [25] = assay: Pharmacokinetic parameter in TB patient serum assessed as percentage of time the compound persisted above 5 mg/L at 3000 mg/kg administered alternate day; assay type: ADME, organism-based; parameters: dose 3000 mg/kg; conditions: in vivo
Homo sapiens [26] = species on record: Homo sapiens; assay: Pharmacokinetic parameter in TB patient serum assessed as percentage of time the compound persisted above 5 mg/L at 500 mg/ kg TID; assay type: ADME, organism-based; parameters: dose 500 mg/ kg; conditions: in vivo
Homo sapiens [27] = assay: Pharmacokinetic parameter in TB patient serum assessed as percentage of time the compound persisted above 10 mg/L at 1500 mg/kg daily; assay type: ADME, organism-based; parameters: dose 1500 mg/kg; conditions: in vivo

With `NC(=O)c1cnccn1` [PYRAZINAMIDE] the Activity (Homo sapiens [1]) was 24%, the Activity (Homo sapiens [2]) was “Toxic” and the Activity (Homo sapiens [3]) was “Non-toxic”. For the same molecule, the Activity (Homo sapiens [4]) was “Non-toxic”, the Activity (Homo sapiens [5]) was “Non-toxic” and the Activity (Homo sapiens [6]) was 9%. The Activity (Homo sapiens [7]) was 23%, the Cmax [8] was 20200 ng/mL and the Activity (Homo sapiens [9]) was “Non-toxic”. The clearance [10] was 66.2 mL/min, the clearance [11] was 68.5 mL/min and the Activity (Homo sapiens [12]) was “Non-toxic”. The Cmax [13] was 67500 ng/mL, the AUC at 168 h [14] was 2190 µg·h/mL and the Activity (Homo sapiens [15]) was 35%. The Cmax [16] was 33800 ng/mL, the Activity (Homo sapiens [17]) was “Toxic” and the AUC(0-t) at 168 h [18] was 2160 µg·h/mL. For the same molecule, the Activity (Homo sapiens [19]) was “Non-toxic”, the clearance [20] was 69.3 mL/min and the Activity (Homo sapiens [21]) was 67%. The Activity (Homo sapiens [22]) was “Non-toxic”, the Activity (Homo sapiens [23]) was 74% and the AUC at 168 h [24] was 2270 µg·h/mL. It also gave an Activity (Homo sapiens [25]) of 48%, an Activity (Homo sapiens [26]) of 92% and an Activity (Homo sapiens [27]) of 49%.
